Assay results: patent US20170143701A1, “CARBOHYDRATE METABOLISM-AMELIORATING AGENT” (SUNTORY HOLDINGS LIMITED, priority 2014, published 2017)

Test system: C57/BL6J mice
Experiment: In vivo plasma GLP-1 level-increasing action: plasma active GLP-1 level (ELISA) after oral administration
Details: 10 mg/kg oral; for Significant difference (p < 0.05) vs control group, plasma active GLP-1 level: 30 minutes, Student's t-test; for Plasma active GLP-1 level (relative value to control group as 100), average value: blood 30 minutes after, 0.5% CMC-Na group = 100
Experimental: Seven-week-old male C57/BL6J mice were purchased from CLEA Japan, Inc. for use, and they were subjected to an experiment after 1 week of a habituation period.
After the habituation period, the mice were subjected to 5.5 hours of food deprivation and 2 hours of water deprivation. Thereafter, a cyclic dipeptide dissolved or suspended in a 0.5% CMC-Na aqueous solution in 10 mg/kg was orally administered to each mouse forcibly. After 30 minutes, the blood was collected from the abdominal vena cava under anesthesia, and 1 μL of heparin sodium and 1 μL of 10 mM Sitagliptin phosphate were added to each collected blood, which was then subjected to centrifugation at 8000 rpm for 10 minutes to recover the plasma, and the plasma active GLP-1 level was measured by using the ELISA kit. In the analysis, the active GLP-1 level for a group administered with 0.5% CMC-Na aqueous solution was defined as 100, and relative values thereto were used.

O=C1CNC(=O)[C@H](Cc2ccccc2)N1 [compound 8, Cyclo(Gly-Phe)]
Significant difference (p < 0.05) vs control group, plasma active GLP-1 level (Table 9, Experiment 4): No
Plasma active GLP-1 level (relative value to control group as 100), average value (Table 9, Experiment 4): 85

CC(C)[C@@H]1NC(=O)[C@H](C(C)C)NC1=O [compound 11, Cyclo(Val-Val)]
Significant difference (p < 0.05) vs control group, plasma active GLP-1 level (Table 9, Experiment 4): No
Plasma active GLP-1 level (relative value to control group as 100), average value (Table 9, Experiment 4): 100

CSCCC1NC(=O)C(CCSC)NC1=O (centres unmarked) [compound 12, Cyclo(Met-Met)]
Significant difference (p < 0.05) vs control group, plasma active GLP-1 level (Table 9, Experiment 4): No
Plasma active GLP-1 level (relative value to control group as 100), average value (Table 9, Experiment 4): 110

O=C1NC(Cc2ccccc2)C(=O)N2CCCC12 (centres unmarked) [compound 13, Cyclo(Phe-Pro)]
Significant difference (p < 0.05) vs control group, plasma active GLP-1 level (Table 9, Experiment 4): No
Plasma active GLP-1 level (relative value to control group as 100), average value (Table 9, Experiment 4): 120

CC[C@H](C)[C@@H]1NC(=O)[C@H]([C@@H](C)CC)NC1=O [compound 14, Cyclo(Ile-Ile)]
Significant difference (p < 0.05) vs control group, plasma active GLP-1 level (Table 9, Experiment 4): No
Plasma active GLP-1 level (relative value to control group as 100), average value (Table 9, Experiment 4): 105

CC(C)C[C@@H]1NC(=O)[C@H](CC(C)C)NC1=O [compound 15, Cyclo(Leu-Leu)]
Significant difference (p < 0.05) vs control group, plasma active GLP-1 level (Table 9, Experiment 4): No
Plasma active GLP-1 level (relative value to control group as 100), average value (Table 9, Experiment 4): 95

CC(C)C[C@@H]1NC(=O)[C@H](Cc2ccccc2)NC1=O [compound 16, Cyclo(Leu-Phe)]
Significant difference (p < 0.05) vs control group, plasma active GLP-1 level (Table 9, Experiment 4): No
Plasma active GLP-1 level (relative value to control group as 100), average value (Table 9, Experiment 4): 105

O=C1N[C@@H](Cc2ccccc2)C(=O)N[C@H]1Cc1ccccc1 [compound 17, cyclo-phenylalanyl-phenylalanine]
Significant difference (p < 0.05) vs control group, plasma active GLP-1 level (Table 8, Experiment 3): Yes
Plasma active GLP-1 level (relative value to control group as 100), average value (Table 8, Experiment 3): 203

O=C1N[C@@H](Cc2c[nH]c3ccccc23)C(=O)N[C@H]1Cc1ccc(O)cc1 [compound 22, cyclo-tryptophanyl-tyrosine]
Significant difference (p < 0.05) vs control group, plasma active GLP-1 level (Table 8, Experiment 3): Yes
Plasma active GLP-1 level (relative value to control group as 100), average value (Table 8, Experiment 3): 203

O=C1CNC(=O)C(Cc2c[nH]c3ccccc23)N1 (centres unmarked) [compound 26, cyclo-glycyl-tryptophan]
Significant difference (p < 0.05) vs control group, plasma active GLP-1 level (Table 8, Experiment 3): Yes
Plasma active GLP-1 level (relative value to control group as 100), average value (Table 8, Experiment 3): 264

O=C1NC(Cc2c[nH]c3ccccc23)C(=O)NC1Cc1ccccc1 (centres unmarked) [compound 28, cyclo-phenylalanyl-tryptophan]
Significant difference (p < 0.05) vs control group, plasma active GLP-1 level (Table 8, Experiment 3): Yes
Plasma active GLP-1 level (relative value to control group as 100), average value (Table 8, Experiment 3): 255

O=C1N[C@@H](Cc2ccc(O)cc2)C(=O)N[C@H]1CO [compound 29, Cyclo(Ser-Tyr)]
Significant difference (p < 0.05) vs control group, plasma active GLP-1 level (Table 9, Experiment 4): No
Plasma active GLP-1 level (relative value to control group as 100), average value (Table 9, Experiment 4): 95

O=C1N[C@@H](Cc2ccc(O)cc2)C(=O)N2CCC[C@@H]12 [compound 30, Cyclo(Pro-Tyr)]
Significant difference (p < 0.05) vs control group, plasma active GLP-1 level (Table 9, Experiment 4): No
Plasma active GLP-1 level (relative value to control group as 100), average value (Table 9, Experiment 4): 95

O=C(O)C[C@@H]1NC(=O)[C@H](Cc2ccccc2)NC1=O [compound 33, Cyclo(Asp-Phe)]
Significant difference (p < 0.05) vs control group, plasma active GLP-1 level (Table 9, Experiment 4): No
Plasma active GLP-1 level (relative value to control group as 100), average value (Table 9, Experiment 4): 90

O=C1N[C@@H](Cc2cnc[nH]2)C(=O)N[C@H]1Cc1ccccc1 [compound 38, cyclo-histidyl-phenylalanine]
Significant difference (p < 0.05) vs control group, plasma active GLP-1 level (Table 8, Experiment 3): Yes
Plasma active GLP-1 level (relative value to control group as 100), average value (Table 8, Experiment 3): 264

CC(C)C[C@@H]1NC(=O)[C@H](Cc2c[nH]c3ccccc23)NC1=O [compound 39, cyclo-leucyl-tryptophan]
Significant difference (p < 0.05) vs control group, plasma active GLP-1 level (Table 8, Experiment 3): Yes
Plasma active GLP-1 level (relative value to control group as 100), average value (Table 8, Experiment 3): 229

O=C1CNC(=O)C(Cc2ccc(O)cc2)N1 (centres unmarked) [compound 42, Cyclo(Tyr-Gly)]
Significant difference (p < 0.05) vs control group, plasma active GLP-1 level (Table 10, Experiment 5): No
Plasma active GLP-1 level (relative value to control group as 100), average value (Table 10, Experiment 5): 97

CC(C)C[C@@H]1NC(=O)[C@H](C)NC1=O [compound 44, cyclo-alanyl-leucine]
Significant difference (p < 0.05) vs control group, plasma active GLP-1 level (Table 8, Experiment 3): Yes
Plasma active GLP-1 level (relative value to control group as 100), average value (Table 8, Experiment 3): 255

O=C1N[C@@H](Cc2ccc(O)cc2)C(=O)N[C@H]1Cc1ccc(O)cc1 [compound 49, Cyclo(Tyr-Tyr)]
Significant difference (p < 0.05) vs control group, plasma active GLP-1 level (Table 10, Experiment 5): No
Plasma active GLP-1 level (relative value to control group as 100), average value (Table 10, Experiment 5): 100

CC1NC(=O)C(Cc2ccccc2)NC1=O (centres unmarked) [compound 52, Cyclo(Ala-Phe)]
Significant difference (p < 0.05) vs control group, plasma active GLP-1 level (Table 10, Experiment 5): No
Plasma active GLP-1 level (relative value to control group as 100), average value (Table 10, Experiment 5): 93

O=C(O)CCC1NC(=O)C(Cc2ccccc2)NC1=O (centres unmarked) [compound 53, Cyclo(Glu-Phe)]
Significant difference (p < 0.05) vs control group, plasma active GLP-1 level (Table 10, Experiment 5): No
Plasma active GLP-1 level (relative value to control group as 100), average value (Table 10, Experiment 5): 93

CC(C)[C@@H]1NC(=O)[C@H](Cc2ccccc2)NC1=O [compound 54, Cyclo(Val-Phe)]
Significant difference (p < 0.05) vs control group, plasma active GLP-1 level (Table 6, Experiment 1): No
Significant difference (p < 0.05) vs control group, plasma active GLP-1 level (Table 10, Experiment 5): No

CCC(C)C1NC(=O)C(Cc2ccccc2)NC1=O (centres unmarked) [compound 55, Cyclo(Ile-Phe)]
Significant difference (p < 0.05) vs control group, plasma active GLP-1 level (Table 10, Experiment 5): No
Plasma active GLP-1 level (relative value to control group as 100), average value (Table 10, Experiment 5): 90

CC(O)C1NC(=O)C(Cc2ccccc2)NC1=O (centres unmarked) [compound 56, Cyclo(Thr-Phe)]
Significant difference (p < 0.05) vs control group, plasma active GLP-1 level (Table 10, Experiment 5): No
Plasma active GLP-1 level (relative value to control group as 100), average value (Table 10, Experiment 5): 87

CC(C)[C@@H]1NC(=O)[C@H](Cc2c[nH]c3ccccc23)NC1=O [compound 61, Cyclo(Trp-Val)]
Significant difference (p < 0.05) vs control group, plasma active GLP-1 level (Table 8, Experiment 3): No
Plasma active GLP-1 level (relative value to control group as 100), average value (Table 8, Experiment 3): 117

CCC(C)C1NC(=O)C(Cc2c[nH]c3ccccc23)NC1=O (centres unmarked) [compound 62, Cyclo(Trp-Ile)]
Significant difference (p < 0.05) vs control group, plasma active GLP-1 level (Table 8, Experiment 3): No
Plasma active GLP-1 level (relative value to control group as 100), average value (Table 8, Experiment 3): 178

NC(=O)CC1NC(=O)C(Cc2ccccc2)NC1=O (centres unmarked) [compound 64, Cyclo(Asn-Phe)]
Significant difference (p < 0.05) vs control group, plasma active GLP-1 level (Table 10, Experiment 5): No
Plasma active GLP-1 level (relative value to control group as 100), average value (Table 10, Experiment 5): 93

CSCCC1NC(=O)C(Cc2ccccc2)NC1=O (centres unmarked) [compound 67, Cyclo(Met-Phe)]
Significant difference (p < 0.05) vs control group, plasma active GLP-1 level (Table 10, Experiment 5): No
Plasma active GLP-1 level (relative value to control group as 100), average value (Table 10, Experiment 5): 93

CSCCC1NC(=O)C(CCCCN)NC1=O (centres unmarked) [compound 70, Cyclo(Met-Lys)]
Significant difference (p < 0.05) vs control group, plasma active GLP-1 level (Table 10, Experiment 5): No
Plasma active GLP-1 level (relative value to control group as 100), average value (Table 10, Experiment 5): 93

CCC(C)C1NC(=O)C(CC(C)C)NC1=O (centres unmarked) [compound 71, Cyclo(Ile-Leu)]
Significant difference (p < 0.05) vs control group, plasma active GLP-1 level (Table 11, Experiment 6): No
Plasma active GLP-1 level (relative value to control group as 100), average value (Table 11, Experiment 6): 79

CSCC[C@@H]1NC(=O)[C@H](CC(C)C)NC1=O [compound 72, Cyclo(Met-Leu)]
Significant difference (p < 0.05) vs control group, plasma active GLP-1 level (Table 11, Experiment 6): No
Plasma active GLP-1 level (relative value to control group as 100), average value (Table 11, Experiment 6): 90

O=C1N[C@@H](Cc2c[nH]c3ccccc23)C(=O)N[C@H]1Cc1c[nH]c2ccccc12 [compound 75, cyclo-tryptophanyl-tryptophan]
Significant difference (p < 0.05) vs control group, plasma active GLP-1 level (Table 8, Experiment 3): Yes
Plasma active GLP-1 level (relative value to control group as 100), average value (Table 8, Experiment 3): 229

CC1NC(=O)C(Cc2c[nH]c3ccccc23)NC1=O (centres unmarked) [compound 76, Cyclo(Trp-Ala)]
Significant difference (p < 0.05) vs control group, plasma active GLP-1 level (Table 11, Experiment 6): No
Plasma active GLP-1 level (relative value to control group as 100), average value (Table 11, Experiment 6): 110

O=C(O)CCC1NC(=O)C(Cc2c[nH]c3ccccc23)NC1=O (centres unmarked) [compound 77, Cyclo(Trp-Glu)]
Significant difference (p < 0.05) vs control group, plasma active GLP-1 level (Table 11, Experiment 6): No
Plasma active GLP-1 level (relative value to control group as 100), average value (Table 11, Experiment 6): 110

C[C@@H](O)[C@@H]1NC(=O)[C@H](Cc2c[nH]c3ccccc23)NC1=O [compound 79, Cyclo(Trp-Thr)]
Significant difference (p < 0.05) vs control group, plasma active GLP-1 level (Table 11, Experiment 6): No
Plasma active GLP-1 level (relative value to control group as 100), average value (Table 11, Experiment 6): 100

NC(=O)CC1NC(=O)C(Cc2c[nH]c3ccccc23)NC1=O (centres unmarked) [compound 81, Cyclo(Trp-Asn)]
Significant difference (p < 0.05) vs control group, plasma active GLP-1 level (Table 11, Experiment 6): No
Plasma active GLP-1 level (relative value to control group as 100), average value (Table 11, Experiment 6): 100

NC(=O)CC[C@@H]1NC(=O)[C@H](Cc2c[nH]c3ccccc23)NC1=O [compound 82, Cyclo(Trp-Gln)]
Significant difference (p < 0.05) vs control group, plasma active GLP-1 level (Table 11, Experiment 6): No
Plasma active GLP-1 level (relative value to control group as 100), average value (Table 11, Experiment 6): 90

CSCCC1NC(=O)C(Cc2c[nH]c3ccccc23)NC1=O (centres unmarked) [compound 83, Cyclo(Trp-Met)]
Significant difference (p < 0.05) vs control group, plasma active GLP-1 level (Table 11, Experiment 6): No
Plasma active GLP-1 level (relative value to control group as 100), average value (Table 11, Experiment 6): 110

O=C1NC(Cc2cnc[nH]2)C(=O)NC1Cc1ccc(O)cc1 (centres unmarked) [compound 85, Cyclo(His-Tyr)]
Significant difference (p < 0.05) vs control group, plasma active GLP-1 level (Table 11, Experiment 6): No
Plasma active GLP-1 level (relative value to control group as 100), average value (Table 11, Experiment 6): 90

CC1NC(=O)C(Cc2ccc(O)cc2)NC1=O (centres unmarked) [compound 86, Cyclo(Ala-Tyr)]
Significant difference (p < 0.05) vs control group, plasma active GLP-1 level (Table 11, Experiment 6): No
Plasma active GLP-1 level (relative value to control group as 100), average value (Table 11, Experiment 6): 90
